Laboratory results from US9662327B2 (AGIOS PHARMACEUTICALS, INC, priority 2011, dated 2017).
Each block holds one compound with its values, some of them ahead of it.

Target: IDH1 R132H (Homo sapiens (Human), UniProt O75874, R132H)
Experiment: Assays for IDH1 R132H Inhibitors (NADPH/aKG, resazurin detection)
Assay type: biochemical
Conditions: IDH1 R132H enzyme, Table 2; read-out: IDHR132H Activity
Summary of the method: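 Mutant enzyme in 150 mM NaCl, 10 mM MgCl2, 20 mM Tris pH 7.5, 0.03% BSA; compound in DMSO added to substrate mix of 8 uM NADPH and 2 mM aKG. Reaction ran 50 min at room temperature, then resazurin detection mix (30 μM) added for 5 min at room temperature.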

Sequence of IDH1 R132H (O75874 whole entry R132H): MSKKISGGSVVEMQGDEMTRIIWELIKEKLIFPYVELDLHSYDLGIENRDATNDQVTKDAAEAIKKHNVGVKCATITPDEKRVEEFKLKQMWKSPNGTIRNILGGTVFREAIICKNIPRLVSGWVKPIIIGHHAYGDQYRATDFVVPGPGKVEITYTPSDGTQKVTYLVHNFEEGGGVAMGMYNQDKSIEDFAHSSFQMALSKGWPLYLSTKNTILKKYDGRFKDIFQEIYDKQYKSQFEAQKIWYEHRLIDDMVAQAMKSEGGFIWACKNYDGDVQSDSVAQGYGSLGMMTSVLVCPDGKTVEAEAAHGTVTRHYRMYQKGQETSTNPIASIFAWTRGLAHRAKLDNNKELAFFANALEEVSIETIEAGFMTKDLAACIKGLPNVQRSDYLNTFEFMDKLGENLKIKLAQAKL

Structure (SMILES): CC(C)c1nc(N2CCN(C(=O)Cc3cccs3)[C@H](C(C)C)C2)c(C#N)c2c1COC(C)(C)C2 [Compound 195, (R)-8-isopropyl-6-(3-isopropyl-4-(2-(thiophen-2-yl)acetyl)piperazin-1-yl)-3,3-dimethyl-3,4-dihydro-1H-pyrano[3,4-c]pyridine-5-carbonitrile]
IC50: < 500 nM

Structure (SMILES): Cc1cc(C(=O)N2CCN(c3nc(C(C)C)c4c(c3C#N)CC(C)(C)OC4)C[C@H]2C)c(C)o1 [Compound 196, (R)-6-(4-(2,5-dimethylfuran-3-carbonyl)-3-methylpiperazin-1-yl)-8-isopropyl-3,3-dimethyl-3,4-dihydro-1H-pyrano[3,4-c]pyridine-5-carbonitrile]
IC50: 1000 to 10000 nM

Structure (SMILES): Cc1ncoc1C(=O)N1CCN(c2nc(C(C)C)c3c(c2C#N)CC(C)(C)OC3)C[C@H]1C [Compound 197, (R)-8-isopropyl-3,3-dimethyl-6-(3-methyl-4-(4-methyloxazole-5-carbonyl)piperazin-1-yl)-3,4-dihydro-1H-pyrano[3,4-c]pyridine-5-carbonitrile]
IC50: 1000 to 10000 nM

Structure (SMILES): COc1ccccc1CC(=O)N1CCN(c2nc(C(C)C)c3c(c2C#N)CC(C)(C)OC3)C[C@H]1C [Compound 199, (R)-8-isopropyl-6-(4-(2-(2-methoxyphenyl)acetyl)-3-methylpiperazin-1-yl)-3,3-dimethyl-3,4-dihydro-1H-pyrano[3,4-c]pyridine-5-carbonitrile]
IC50: 1000 to 10000 nM

Structure (SMILES): CC(C)c1nc(N2CCN(C(=O)c3ccco3)[C@H](c3ccccc3)C2)c(C#N)c2c1COC(C)(C)C2 [Compound 200, (R)-6-(4-(furan-2-carbonyl)-3-phenylpiperazin-1-yl)-8-isopropyl-3,3-dimethyl-3,4-dihydro-1H-pyrano[3,4-c]pyridine-5-carbonitrile]
IC50: 1000 to 10000 nM

Structure (SMILES): CC(C)c1nc(N2CCN(C(=O)c3ccco3)C[C@@H]2C)c(C#N)c2c1COC(C)(C)C2 [Compound 202, (S)-6-(4-(furan-2-carbonyl)-2-methylpiperazin-1-yl)-8-isopropyl-3,3-dimethyl-3,4-dihydro-1H-pyrano[3,4-c]pyridine-5-carbonitrile]
IC50: 1000 to 10000 nM

Structure (SMILES): CC[C@@H]1CN(c2nc(C(C)C)c3c(c2C#N)CC(C)(C)OC3)CCN1C(=O)c1ccoc1 [Compound 205, (R)-6-(3-ethyl-4-(furan-3-carbonyl)piperazin-1-yl)-8-isopropyl-3,3-dimethyl-3,4-dihydro-1H-pyrano[3,4-c]pyridine-5-carbonitrile]
IC50: < 500 nM

Structure (SMILES): CC[C@@H]1CN(c2nc(C(C)C)c3c(c2C#N)CC(C)(C)OC3)CCN1C(=O)Cc1cccs1 [Compound 206, (R)-6-(3-ethyl-4-(2-(thiophen-2-yl)acetyl)piperazin-1-yl)-8-isopropyl-3,3-dimethyl-3,4-dihydro-1H-pyrano[3,4-c]pyridine-5-carbonitrile]
IC50: < 500 nM

Structure (SMILES): CC[C@@H]1CN(c2nc(C(C)C)c3c(c2C#N)CC(C)(C)OC3)CCN1C(=O)c1ccoc1C [Compound 207, (R)-6-(3-ethyl-4-(2-methylfuran-3-carbonyl)piperazin-1-yl)-8-isopropyl-3,3-dimethyl-3,4-dihydro-1H-pyrano[3,4-c]pyridine-5-carbonitrile]
IC50: < 500 nM

Structure (SMILES): CC(C)c1nc(N2CCN(C(=O)c3cocn3)[C@H](C(C)C)C2)c(C#N)c2c1COC(C)(C)C2 [Compound 212, (R)-8-isopropyl-6-(3-isopropyl-4-(oxazole-4-carbonyl)piperazin-1-yl)-3,3-dimethyl-3,4-dihydro-1H-pyrano[3,4-c]pyridine-5-carbonitrile]
IC50: 500 to 1000 nM

Structure (SMILES): Cc1ncoc1C(=O)N1CCN(c2nc(C(C)C)c3c(c2C#N)CC(C)(C)OC3)C[C@H]1C(C)C [Compound 213, (R)-8-isopropyl-6-(3-isopropyl-4-(4-methyloxazole-5-carbonyl)piperazin-1-yl)-3,3-dimethyl-3,4-dihydro-1H-pyrano[3,4-c]pyridine-5-carbonitrile]
IC50: 1000 to 10000 nM

Structure (SMILES): CC(C)c1nc(N2CCN(C(=O)Cc3ccccn3)[C@H](C(C)C)C2)c(C#N)c2c1COC(C)(C)C2 [Compound 214, (R)-8-isopropyl-6-(3-isopropyl-4-(2-(pyridin-2-yl)acetyl)piperazin-1-yl)-3,3-dimethyl-3,4-dihydro-1H-pyrano[3,4-c]pyridine-5-carbonitrile]
IC50: 500 to 1000 nM

Structure (SMILES): CC(C)c1nc(N2CCN(C(=O)Cc3ccccc3F)[C@H](C(C)C)C2)c(C#N)c2c1COC(C)(C)C2 [Compound 215, (R)-6-(4-(2-(2-fluorophenyl)acetyl)-3-isopropylpiperazin-1-yl)-8-isopropyl-3,3-dimethyl-3,4-dihydro-1H-pyrano[3,4-c]pyridine-5-carbonitrile]
IC50: 1000 to 10000 nM

Structure (SMILES): COc1ccccc1CC(=O)N1CCN(c2nc(C(C)C)c3c(c2C#N)CC(C)(C)OC3)C[C@H]1C(C)C [Compound 216, (R)-8-isopropyl-6-(3-isopropyl-4-(2-(2-methoxyphenyl)acetyl)piperazin-1-yl)-3,3-dimethyl-3,4-dihydro-1H-pyrano[3,4-c]pyridine-5-carbonitrile]
IC50: 1000 to 10000 nM

Structure (SMILES): Cc1oncc1C(=O)N1CCN(c2nc(C(C)C)c3c(c2C#N)CC(C)(C)OC3)C[C@H]1C [Compound 217, (R)-8-isopropyl-3,3-dimethyl-6-(3-methyl-4-(5-methylisoxazole-4-carbonyl)piperazin-1-yl)-3,4-dihydro-1H-pyrano[3,4-c]pyridine-5-carbonitrile]
IC50: 500 to 1000 nM

Structure (SMILES): CC(C)c1nc(N2CCN(C(=O)Cc3ccccc3F)[C@H](C)C2)c(C#N)c2c1COC(C)(C)C2 [Compound 219, (R)-6-(4-(2-(2-fluorophenyl)acetyl)-3-methylpiperazin-1-yl)-8-isopropyl-3,3-dimethyl-3,4-dihydro-1H-pyrano[3,4-c]pyridine-5-carbonitrile]
IC50: 1000 to 10000 nM

Structure (SMILES): COc1cccc(CC(=O)N2CCN(c3nc(C(C)C)c4c(c3C#N)CC(C)(C)OC4)C[C@H]2C)c1 [Compound 221, (R)-8-isopropyl-6-(4-(2-(3-methoxyphenyl)acetyl)-3-methylpiperazin-1-yl)-3,3-dimethyl-3,4-dihydro-1H-pyrano[3,4-c]pyridine-5-carbonitrile]
IC50: 1000 to 10000 nM

Structure (SMILES): CC(C)c1nc(N2CCN(C(=O)c3ccco3)[C@@H](c3ccccc3)C2)c(C#N)c2c1COC(C)(C)C2 [Compound 223, (S)-6-(4-(furan-2-carbonyl)-3-phenylpiperazin-1-yl)-8-isopropyl-3,3-dimethyl-3,4-dihydro-1H-pyrano[3,4-c]pyridine-5-carbonitrile]
IC50: 500 to 1000 nM

Results, then the compound that gave them:

IC50: 1000 to 10000 nM
Structure (SMILES): Cc1nc2ccccn2c1C(=O)N1CCN(c2nc(C3CCCCC3)c3c(c2C#N)CCOC3)C[C@H]1C [Compound 190, (R)-8-cyclohexyl-6-(3-methyl-4-(2-methylimidazo[1,2-a]pyridine-3-carbonyl)piperazin-1-yl)-3,4-dihydro-1H-pyrano[3,4-c]pyridine-5-carbonitrile]

IC50: 1000 to 10000 nM
Structure (SMILES): C[C@@H]1CN(c2nc(C3CCCCC3)c3c(c2C#N)CCOC3)CCN1C(=O)Cc1cccc(F)c1 [Compound 191, (R)-8-cyclohexyl-6-(4-(2-(3-fluorophenyl)acetyl)-3-methylpiperazin-1-yl)-3,4-dihydro-1H-pyrano[3,4-c]pyridine-5-carbonitrile]

IC50: 1000 to 10000 nM
Structure (SMILES): Cc1ccoc1C(=O)N1CCN(c2nc(C3CC3)c3c(c2C#N)CC(C)(C)OC3)C[C@H]1C(C)C [Compound 193]

IC50: < 500 nM
Structure (SMILES): CC(C)[C@@H]1CN(c2nc(C3CC3)c3c(c2C#N)CC(C)(C)OC3)CCN1C(=O)Cc1cccs1 [Compound 194]

IC50: 1000 to 10000 nM
Structure (SMILES): CC(C)c1nc(N2CCN(C(=O)c3cocn3)[C@H](C)C2)c(C#N)c2c1COC(C)(C)C2 [Compound 198, (R)-8-isopropyl-3,3-dimethyl-6-(3-methyl-4-(oxazole-4-carbonyl)piperazin-1-yl)-3,4-dihydro-1H-pyrano[3,4-c]pyridine-5-carbonitrile]

IC50: 1000 to 10000 nM
Structure (SMILES): C[C@H]1CN(C(=O)c2ccco2)CCN1c1nc(C2CCCCC2)c2c(c1C#N)CCOC2 [Compound 201, (S)-8-cyclohexyl-6-(4-(furan-2-carbonyl)-2-methylpiperazin-1-yl)-3,4-dihydro-1H-pyrano[3,4-c]pyridine-5-carbonitrile]

IC50: 1000 to 10000 nM
Structure (SMILES): C[C@H]1CN(C(=O)c2ccco2)CCN1c1nc(C2CC2)c2c(c1C#N)CC(C)(C)OC2 [Compound 203, (S)-8-cyclopropyl-6-(4-(furan-2-carbonyl)-2-methylpiperazin-1-yl)-3,3-dimethyl-3,4-dihydro-1H-pyrano[3,4-c]pyridine-5-carbonitrile]

IC50: 1000 to 10000 nM
Structure (SMILES): C[C@@H]1CN(C(=O)c2ccco2)CCN1c1nc(C2CC2)c2c(c1C#N)CC(C)(C)OC2 [Compound 204, (R)-8-cyclopropyl-6-(4-(furan-2-carbonyl)-2-methylpiperazin-1-yl)-3,3-dimethyl-3,4-dihydro-1H-pyrano[3,4-c]pyridine-5-carbonitrile]

IC50: 500 to 1000 nM
Structure (SMILES): COc1ccccc1CC(=O)N1CCN(c2nc(C3CC3)c3c(c2C#N)CC(C)(C)OC3)C[C@H]1C(C)C [Compound 208]

IC50: < 500 nM
Structure (SMILES): CC(C)[C@@H]1CN(c2nc(C3CC3)c3c(c2C#N)CC(C)(C)OC3)CCN1C(=O)Cc1ccccn1 [Compound 211]

IC50: 1000 to 10000 nM
Structure (SMILES): CC(C)c1nc(N2CCN(C(=O)Cc3ccccn3)[C@H](C)C2)c(C#N)c2c1COC(C)(C)C2 [Compound 218, (R)-8-isopropyl-3,3-dimethyl-6-(3-methyl-4-(2-(pyridin-2-yl)acetyl)piperazin-1-yl)-3,4-dihydro-1H-pyrano[3,4-c]pyridine-5-carbonitrile]

IC50: 1000 to 10000 nM
Structure (SMILES): Cc1nc2ccccn2c1C(=O)N1CCN(c2nc(C(C)C)c3c(c2C#N)CC(C)(C)OC3)C[C@H]1C [Compound 220, (R)-8-isopropyl-3,3-dimethyl-6-(3-methyl-4-(2-methylimidazo[1,2-a]pyridine-3-carbonyl)piperazin-1-yl)-3,4-dihydro-1H-pyrano[3,4-c]pyridine-5-carbonitrile]

IC50: 1000 to 10000 nM
Structure (SMILES): CC(C)c1nc(N2CCN(C(=O)c3cnc4ccccn34)[C@H](C)C2)c(C#N)c2c1COC(C)(C)C2 [Compound 222, (R)-6-(4-(imidazo[1,2-a]pyridine-3-carbonyl)-3-methylpiperazin-1-yl)-8-isopropyl-3,3-dimethyl-3,4-dihydro-1H-pyrano[3,4-c]pyridine-5-carbonitrile]
